Legend:
[1] = target: T1, human ether-a-go-go-related-gene (hERG)-encoded potassium channel (Homo sapiens, UniProt Q12809); test: hERG-encoded potassium channel inhibition test (d); format: cell-based; details: HEK cells expressing hERG-encoded channel, tail current, whole cell patch clamp
T1 construct: expressed in transfected cells; host or cells: Human embryonic kidney (HEK) cells
Description: d) hERG-encoded Potassium Channel Inhibition Test
This assay determines the ability of a test compound to inhibit the tail current flowing through the human ether-a-go-go-related-gene (hERG)-encoded potassium channel.
Human embryonic kidney (HEK) cells expressing the hERG-encoded channel were grown in Minimum Essential Medium Eagle (EMEM; Sigma-Aldrich catalogue number M2279), supplemented with 10% Foetal Calf Serum (Labtech International; product number 4-101-500), 10% M1 serum-free supplement (Egg Technologies; product number 70916) and 0.4 mg/ml Geneticin G418 (Sigma-Aldrich; catalogue number G7034). […]
For each cell recorded, a glass coverslip containing the cells was placed at the bottom of a Perspex chamber containing bath solution (see below) at ambient temperature ([…]). […]
The cell was recorded in the whole cell configuration of the patch clamp technique. […]
The amplitude of the hERG-encoded potassium channel tail current following the step from +40 mV to −50 mV was recorded on-line by Clampex software (Axon Instruments). […]
The effect of each concentration of test compound was quantified by expressing the tail current amplitude in the presence of a given concentration of test compound as a percentage of that in the presence of vehicle. […]

KDR = target: T2, KDR (Homo sapiens, UniProt P35968); test: In vitro receptor tyrosine kinase inhibition test (a), enzyme assay against KDR; format: biochemical; details: KDR cytoplasmic domain
T2 construct: made in house; host or cells: insect cells (Spodoptera frugiperda Sf21, baculovirus)
T2 sequence (P35968 786-1356 limits assumed): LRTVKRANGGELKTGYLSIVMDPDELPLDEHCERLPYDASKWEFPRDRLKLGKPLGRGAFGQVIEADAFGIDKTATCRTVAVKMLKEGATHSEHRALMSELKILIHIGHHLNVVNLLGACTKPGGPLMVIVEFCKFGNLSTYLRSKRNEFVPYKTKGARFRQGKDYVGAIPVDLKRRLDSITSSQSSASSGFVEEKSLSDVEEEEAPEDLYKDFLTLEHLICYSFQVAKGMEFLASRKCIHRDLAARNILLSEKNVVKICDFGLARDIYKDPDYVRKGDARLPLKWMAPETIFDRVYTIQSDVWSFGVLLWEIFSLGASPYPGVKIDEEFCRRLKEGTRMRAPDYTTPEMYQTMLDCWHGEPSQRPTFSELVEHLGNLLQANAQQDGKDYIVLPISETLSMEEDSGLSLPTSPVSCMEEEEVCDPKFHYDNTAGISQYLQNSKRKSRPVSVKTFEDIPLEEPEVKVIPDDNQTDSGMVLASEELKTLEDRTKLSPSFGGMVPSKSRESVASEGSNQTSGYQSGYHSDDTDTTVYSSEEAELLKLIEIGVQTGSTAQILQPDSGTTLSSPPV
Excerpt: (a) In Vitro Receptor Tyrosine Kinase Inhibition Test
This assay determines the ability of a test compound to inhibit tyrosine kinase activity. DNA encoding VEGF, FGF or EGF receptor cytoplasmic domains may be obtained by total gene synthesis (Edwards M, International Biotechnology Lab 5(3), 19-25, 1987) or by cloning. These may then be expressed in a suitable expression system to obtain polypeptide with tyrosine kinase activity. […] In the case of the VEGF receptor Flt-1 (Genbank accession number X51602), a 1.7 kb DNA fragment encoding most of the cytoplasmic domain, commencing with methionine 783 and including the termination codon, described by Shibuya et al (Oncogene, 1990, 5: 519-524), was isolated from cDNA and cloned into a baculovirus transplacement vector (for example pAcYM1 (see The Baculovirus Expression System: A Laboratory Guide, L. A. King and R. D. Possee, Chapman and Hall, 1992) or pAc360 or pBlueBacHis (available from Invitrogen Corporation)). This recombinant construct was co-transfected into insect cells (for example Spodoptera frugiperda 21(5f21)) with viral DNA (eg Pharmingen BaculoGold) to prepare recombinant baculovirus. […]

T1 sequence (Q12809 whole entry): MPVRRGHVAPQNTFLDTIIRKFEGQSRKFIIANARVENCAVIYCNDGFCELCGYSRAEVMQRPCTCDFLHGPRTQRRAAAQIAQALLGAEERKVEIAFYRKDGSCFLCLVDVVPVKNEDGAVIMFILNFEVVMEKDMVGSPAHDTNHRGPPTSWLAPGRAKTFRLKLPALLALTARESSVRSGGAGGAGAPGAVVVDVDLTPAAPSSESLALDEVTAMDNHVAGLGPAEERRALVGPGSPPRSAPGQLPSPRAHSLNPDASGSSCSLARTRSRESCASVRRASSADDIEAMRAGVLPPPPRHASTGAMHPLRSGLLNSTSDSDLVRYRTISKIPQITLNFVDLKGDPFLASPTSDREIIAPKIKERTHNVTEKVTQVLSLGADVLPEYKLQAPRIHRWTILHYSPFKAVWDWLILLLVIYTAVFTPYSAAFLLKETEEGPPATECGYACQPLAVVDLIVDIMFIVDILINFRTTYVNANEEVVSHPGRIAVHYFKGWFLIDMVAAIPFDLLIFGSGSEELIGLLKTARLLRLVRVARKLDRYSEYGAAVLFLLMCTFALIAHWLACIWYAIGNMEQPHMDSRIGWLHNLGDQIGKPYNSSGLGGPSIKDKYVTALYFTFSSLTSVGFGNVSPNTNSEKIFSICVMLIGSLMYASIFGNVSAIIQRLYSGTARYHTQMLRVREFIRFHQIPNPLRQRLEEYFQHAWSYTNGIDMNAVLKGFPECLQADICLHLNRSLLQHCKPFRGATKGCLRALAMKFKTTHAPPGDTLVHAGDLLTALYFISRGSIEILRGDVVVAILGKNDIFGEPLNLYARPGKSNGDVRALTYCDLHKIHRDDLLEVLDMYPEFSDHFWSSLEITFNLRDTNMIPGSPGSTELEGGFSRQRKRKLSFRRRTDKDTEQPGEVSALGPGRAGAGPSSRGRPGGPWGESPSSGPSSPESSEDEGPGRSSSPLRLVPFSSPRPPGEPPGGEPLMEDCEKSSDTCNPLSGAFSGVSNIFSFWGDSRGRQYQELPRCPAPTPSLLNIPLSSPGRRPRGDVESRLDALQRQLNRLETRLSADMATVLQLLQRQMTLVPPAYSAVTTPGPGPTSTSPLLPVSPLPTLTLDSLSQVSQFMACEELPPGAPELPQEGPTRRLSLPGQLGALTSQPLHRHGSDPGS

SMILES: COc1cc2c(Oc3ccc4[nH]c(C)c(C)c4c3)ncnc2cc1OCCN1CCN(CC(C)=O)CC1 [Example 11, 7-{2-[4-(acetylmethyl)piperazin-1-yl]ethoxy}-4-[(2,3-dimethyl-1H-indol-5-yl)oxy]-6-methoxyquinazoline]
- IC50 [1]: 10.1 µM
- IC50 (KDR): 0.104 µM

From patent US7989460B2, “Quinazoline derivatives as angiogenesis inhibitors” (AstraZeneca AB, priority 2003, dated 2011)
